# Measurements taken from a compilation of properties of binary mixtures (doi:10.1016/s1004-9541(08)60072-5).
# Test: xn = mol fraction of the nth substance listed
# Settings: 101 kPa
structure (smiles),measurement,setting,value
CN(C)C=O + CCCC[n+]1ccn(C)c1.F[P-](F)(F)(F)(F)F,viscosity,"293.15 K, x1 = 1",0.91 mPa·s
same,viscosity,"298.15 K, x1 = 1",0.87 mPa·s
same,viscosity,"308.15 K, x1 = 1",0.78 mPa·s
same,viscosity,"313.15 K, x1 = 1",0.75 mPa·s
same,viscosity,"318.15 K, x1 = 1",0.72 mPa·s
CCCC[n+]1ccn(C)c1.F[P-](F)(F)(F)(F)F + CN(C)C=O,viscosity,"293.15 K, x2 = 0",265 mPa·s
same,viscosity,"293.15 K, x2 = 0.1002",151.1 mPa·s
same,viscosity,"293.15 K, x2 = 0.2",94.6 mPa·s
same,viscosity,"293.15 K, x2 = 0.3002",59.6 mPa·s
same,viscosity,"293.15 K, x2 = 0.5",23.41 mPa·s
same,viscosity,"293.15 K, x2 = 0.6",12.37 mPa·s
same,viscosity,"293.15 K, x2 = 0.7",6.86 mPa·s
same,viscosity,"293.15 K, x2 = 0.7999",3.71 mPa·s
same,viscosity,"293.15 K, x2 = 0.8999",1.9 mPa·s
same,viscosity,"298.15 K, x2 = 0",205.6 mPa·s
same,viscosity,"298.15 K, x2 = 0.1002",114.5 mPa·s
same,viscosity,"298.15 K, x2 = 0.2",73.4 mPa·s
same,viscosity,"298.15 K, x2 = 0.3002",47.4 mPa·s
same,viscosity,"298.15 K, x2 = 0.3999",32.09 mPa·s
same,viscosity,"298.15 K, x2 = 0.5",19.44 mPa·s
same,viscosity,"298.15 K, x2 = 0.6",10.57 mPa·s
same,viscosity,"298.15 K, x2 = 0.7",6.02 mPa·s
same,viscosity,"298.15 K, x2 = 0.7999",3.35 mPa·s
same,viscosity,"298.15 K, x2 = 0.8999",1.77 mPa·s
same,viscosity,"303.15 K, x2 = 0",165.7 mPa·s
same,viscosity,"303.15 K, x2 = 0.1002",88.2 mPa·s
same,viscosity,"303.15 K, x2 = 0.2",58 mPa·s
same,viscosity,"303.15 K, x2 = 0.3002",38.1 mPa·s
same,viscosity,"303.15 K, x2 = 0.3999",26.34 mPa·s
same,viscosity,"303.15 K, x2 = 0.5",16.3 mPa·s
same,viscosity,"303.15 K, x2 = 0.6",9.11 mPa·s
same,viscosity,"303.15 K, x2 = 0.7",5.32 mPa·s
same,viscosity,"303.15 K, x2 = 0.7999",3.03 mPa·s
same,viscosity,"303.15 K, x2 = 0.8999",1.62 mPa·s
same,viscosity,"308.15 K, x2 = 0",133.9 mPa·s
same,viscosity,"308.15 K, x2 = 0.1002",68.8 mPa·s
same,viscosity,"308.15 K, x2 = 0.2",45.9 mPa·s
same,viscosity,"308.15 K, x2 = 0.3999",21.74 mPa·s
same,viscosity,"308.15 K, x2 = 0.5",13.74 mPa·s
same,viscosity,"308.15 K, x2 = 0.7999",2.73 mPa·s
same,viscosity,"308.15 K, x2 = 0.8999",1.5 mPa·s
same,viscosity,"313.15 K, x2 = 0",110.8 mPa·s
same,viscosity,"313.15 K, x2 = 0.1002",54.9 mPa·s
same,viscosity,"313.15 K, x2 = 0.2",37.4 mPa·s
same,viscosity,"313.15 K, x2 = 0.3002",25.68 mPa·s
same,viscosity,"313.15 K, x2 = 0.3999",18.3 mPa·s
same,viscosity,"313.15 K, x2 = 0.5",11.82 mPa·s
same,viscosity,"313.15 K, x2 = 0.6",6.94 mPa·s
same,viscosity,"313.15 K, x2 = 0.7",4.22 mPa·s
same,viscosity,"313.15 K, x2 = 0.7999",2.51 mPa·s
same,viscosity,"313.15 K, x2 = 0.8999",1.4 mPa·s
same,viscosity,"318.15 K, x2 = 0.1002",44.6 mPa·s
same,viscosity,"318.15 K, x2 = 0.3002",21.55 mPa·s
same,viscosity,"318.15 K, x2 = 0.3999",15.57 mPa·s
same,viscosity,"318.15 K, x2 = 0.5",10.24 mPa·s
same,viscosity,"318.15 K, x2 = 0.7",3.82 mPa·s
same,viscosity,"318.15 K, x2 = 0.7999",2.3 mPa·s
same,viscosity,"318.15 K, x2 = 0.8999",1.31 mPa·s
